“And” between values parts separate entries of the source, which are not always exact repeats. Equal entries are not always repeated. Where two headings read alike, the source gives them in different places.
Key:
[1] = animals and humans; cited from earlier work
C. albicans [2] = experiment: Zone of inhibition assay of coated sutures; assay type: cell-based; conditions: coated suture; 0.5% in coating solution; 37° C. 48 hr
S. aureus [3] = experiment: Zone of inhibition assay of coated sutures; assay type: cell-based, Staphylococcus aureus; conditions: coated 2-0 polyglactin 910 suture; 0.5% in coating solution; 37° C. 48 hr
Method: (§1) The coating solutions were made by dissolving a L(−) lactide/glycolide copolymer containing 65 mole % lactide and 35 mole % glycolide (4.5%) and calcium stearate (4.5%) in ethyl acetate. […] The sutures were hand coated by dipping into the coating solution containing antimicrobial composition and then air dried at room temperature for 8 hr. […] A Petri dish was inoculated with about 10^5 cfu/suture and a portion of 20 ml of TSA tempered at 47° C. was added into the Petri dish. The inoculum was mixed thoroughly with the medium and the suture was placed in the middle of the Petri dish. The inoculated Petri dishes were incubated at 37° C. for 48 hr and then the zone of inhibition was measured with a digital caliper.
(§2) The zone of inhibition assay was performed against S. aureus and E. coli over a two-day period.

E. coli [4] = experiment: Zone of inhibition assay of coated sutures; assay type: cell-based; conditions: coated suture; 0.5% in coating solution; 37° C. 48 hr
Method: as §1, §2

[5] = system: Staphylococcus aureus, E. coli and C. albicans; experiment: Zone of inhibition assay of coated sutures, summary in text; assay type: cell-based; conditions: coated suture
Method: as §1, §2

S. aureus [6] = assay type: cell-based
Method: (§3) Sequential dilutions of the above two stock solutions were then prepared also in sterile saline. A portion of 0.05 ml of each dilution was added to 0.95 ml of bacterial culture (trypticase soy broth containing 10^6 CFU/ml). […] The test cultures were incubated at 37° C. for 24 hr, the total viable bacteria were numerated by plate count on Trypticase® soy agar (BBL) containing inactivating agent. The plates were incubated at 37° C. for 48 hr and reported as colony forming unit/ml (CFU/ml).

[7] = rats; cited from earlier work
C. albicans [8] = experiment: Viable plate count after 24 hr incubation in trypticase soy broth culture; assay type: cell-based
Method: as §3

E. coli [9] = experiment: as above; assay type: cell-based
Method: as §3

E. faecium = experiment: as above; assay type: cell-based
Method: as §3

P. aeruginosa = experiment: as above; assay type: cell-based
Method: as §3

[10] = single agent 10 ppm, 37° C. 24 hr

Compound	toxicological finding [1]	Zone of inhibition(mm) C. albicans (C. albicans [2])	Zone of inhibition(mm) S. aureus (S. aureus [3])	Zone of inhibition(mm) E. coli (E. coli [4])	zone of inhibition [5]	CFU/ml S. aureus (S. aureus [6])	absorption and metabolism [7]	reduction of viable bacteria compared to the control, C. albicans (C. albicans [8]; alone at 10 ppm)	CFU/ml C. albicans (C. albicans [8]; [10])	reduction of viable bacteria compared to the control, E. coli (E. coli [9])	CFU/ml E. coli (E. coli [9]; monohydrochloride)	reduction of viable bacteria compared to the control, E. faecium (E. faecium; alone at 10 ppm)	CFU/ml E. faecium (E. faecium; [10])	reduction of viable bacteria compared to the control, P. aeruginosa (P. aeruginosa; alone at 10 ppm)	CFU/ml P. aeruginosa (P. aeruginosa; [10])	CFU/ml S. aureus (S. aureus [6]; Table 2, single agent 10 ppm)	CFU/ml S. aureus (S. aureus [6]; Table 2, single agent 20 ppm)	CFU/ml E. coli (E. coli [9]; Table 2, single agent 10 ppm)	CFU/ml E. coli (E. coli [9]; Table 2, single agent 20 ppm)
CCCCCCCCCCCC(=O)N[C@@H](CCCN=C(N)N)C(=O)OCC.Cl [LAE, ethyl ester of the lauramide of the arginine monohydrochloride]	completely harmless to animals and humans	0 mm	0 mm	0 mm	no zones of inhibition	6.4 × 10^8 CFU/ml	fast absorption and metabolism into naturally-occurring amino acids and the lauric acid	< 2 log	6.0 × 10^7 CFU/ml	no inhibition	1.0 × 10^9 CFU/ml and 1.1 × 10^9 CFU/ml	< 2 log	5.0 × 10^7 CFU/ml	no inhibition	1.0 × 10^9 CFU/ml				
O=[N+]([O-])[O-].[Ag+] [AgNO3, silver nitrate]																9.3 × 10^8 CFU/ml	2.2 × 10^8 CFU/ml	1.2 × 10^9 CFU/ml	1.0 × 10^8 CFU/ml
